Experiment: Storage stability in an accelerated test (open glass beaker, 40 days at 30° C.)
Type: physicochemical
Settings: for Analytical value (concentration of nitrification inhibitor on the mineral fertilizer): Value at start
Experimental: The concentration of nitrification inhibitor on the mineral fertilizer was determined before, during and after storage at two different depths in the bed, and the loss of nitrification inhibitor was ascertained. In each case about 10 to 30 g of treated mineral fertilizer were stored. The concentration of DMPP at the start was 1.028 g/kg fertilizer; for 2-(N-3,4-dimethylpyrazole)succinic acid, the figure was 1.244 g/kg fertilizer.
After 20 and 40 days, samples were taken from a surface region of the fertilizer bed (0 to 5 cm sampling depth and >5 cm sampling depth).
The results are shown in table 1 below, where DMPSA denotes 2-(N-3,4-dimethylpyrazole)succinic acid.

Analytical value (concentration of nitrification inhibitor on the mineral fertilizer) [g/kg]	loss of nitrification inhibitor on storage, compared with DMPP (storage over 20 to 40 days on CAN)	Compound
1.028		Cc1c[nH]nc1C.O=P(O)(O)O [DMPP, 3,4-dimethylpyrazole phosphate, reference compound]
1.244	much lower	Cc1cn(C(CC(=O)O)C(=O)O)nc1C (stereo not drawn) [DMPSA, 2-(N-3,4-dimethylpyrazole)succinic acid]

From US20170050894A1, “FERTILIZER MIXTURE CONTAINING NITRIFICATION INHIBITOR” (EUROCHEM AGRO GMBH, priority 2013, published 2017)
